Drawing on PMC7289955, “The Role of Dopamine in the Stimulant Characteristics of Novel Psychoactive Substances (NPS)—Neurobiological and Computational Assessment Using the Case of Desoxypipradrol (2-DPMP)” (Frontiers in Pharmacology, 2020), this text covers IC50 for one molecule.

As usually defined, the IC50 is the concentration that inhibits the measured activity by half. A low value points to greater potency.

For the test, the target named is T1, dopamine transporter (DAT) (Rattus norvegicus, UniProt P23977).
T1 construct: gene Slc6a3; native DAT in rat brain sections (nucleus accumbens shell and caudate-putamen)
In words: […]RTI-121 displacement, quantitative autoradiography on rat brain sections.

T1 sequence (P23977 whole entry): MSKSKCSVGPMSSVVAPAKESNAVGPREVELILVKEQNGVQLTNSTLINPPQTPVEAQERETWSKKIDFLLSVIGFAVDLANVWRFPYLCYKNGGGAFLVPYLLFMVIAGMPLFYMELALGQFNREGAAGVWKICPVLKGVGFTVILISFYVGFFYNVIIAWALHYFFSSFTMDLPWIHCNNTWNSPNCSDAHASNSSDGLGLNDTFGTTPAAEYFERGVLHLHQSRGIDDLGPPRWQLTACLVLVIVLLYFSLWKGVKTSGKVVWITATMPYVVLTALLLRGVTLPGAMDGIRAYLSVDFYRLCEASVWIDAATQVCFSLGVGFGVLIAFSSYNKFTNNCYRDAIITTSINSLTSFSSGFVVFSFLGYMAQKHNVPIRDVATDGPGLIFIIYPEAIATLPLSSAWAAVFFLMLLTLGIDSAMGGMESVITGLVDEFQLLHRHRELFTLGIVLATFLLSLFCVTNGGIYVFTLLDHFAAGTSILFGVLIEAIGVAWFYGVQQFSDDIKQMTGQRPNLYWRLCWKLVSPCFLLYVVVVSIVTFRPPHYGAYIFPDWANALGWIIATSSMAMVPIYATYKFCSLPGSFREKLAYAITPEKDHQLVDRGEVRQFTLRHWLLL

The molecule `c1ccc(C(c2ccccc2)C2CCCCN2)cc1` (stereo not shown) [2-DPMP, 2-diphenylmethylpiperidine] yielded an IC50 of 565 nM.
